In general, EC50 refers to the concentration at which the effect is half-maximal.

The first assay deals with human somatostatin receptor subtype 5 (Homo sapiens, UniProt P35346). Kind of assay: cAMP assay for SST5R (inhibition of cAMP via human SST5 receptor).
human somatostatin receptor subtype 5, sequence (P35346 whole entry): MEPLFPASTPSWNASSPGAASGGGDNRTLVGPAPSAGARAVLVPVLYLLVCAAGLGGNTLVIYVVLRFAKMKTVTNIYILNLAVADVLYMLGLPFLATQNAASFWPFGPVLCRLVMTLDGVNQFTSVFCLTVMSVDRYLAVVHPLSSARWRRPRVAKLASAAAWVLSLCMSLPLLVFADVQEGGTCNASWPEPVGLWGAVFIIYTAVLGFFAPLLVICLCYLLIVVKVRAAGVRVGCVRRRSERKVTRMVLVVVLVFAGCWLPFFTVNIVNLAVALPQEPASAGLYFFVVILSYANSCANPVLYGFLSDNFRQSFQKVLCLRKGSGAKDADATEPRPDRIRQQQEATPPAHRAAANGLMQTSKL
Details: not given
`NCC1CN(c2c(-c3nc4c(F)cc(F)cc4[nH]3)cncc2-c2ccccc2F)C1` [Compound 1-44, 1-{1-[3-(4,6-difluoro-1H-1,3-benzodiazol-2-yl)-5-(2-fluorophenyl)pyridin-4-yl]azetidin-3-yl}methanamine] returned an EC50 of 100 to 1000 nM. `Cc1ccc(F)c(-c2cncc(-c3nc4cc(F)cc(F)c4[nH]3)c2N2CC(CN)C2)c1` [Compound 1-45, 1-{1-[3-(4,6-difluoro-1H-1,3-benzodiazol-2-yl)-5-(2-fluoro-5-methylphenyl)pyridin-4-yl]azetidin-3-yl}methanamine] had an EC50 of 10 to 100 nM. Take `Cc1ccc(F)cc1-c1cncc(-c2nc3cc(F)cc(F)c3[nH]2)c1N1CC(CN)C1` [Compound 1-46, 1-{1-[3-(4,6-difluoro-1H-1,3-benzodiazol-2-yl)-5-(5-fluoro-2-methylphenyl)pyridin-4-yl]azetidin-3-yl}methanamine]: the EC50 fell in the range of 10 to 100 nM. Still for that read-out and setting: to `Cc1cc(-c2cncc(-c3nc4cc(F)cc(F)c4[nH]3)c2N2CC(CN)C2)ccc1F` [Compound 1-47, 1-{1-[3-(4,6-difluoro-1H-1,3-benzodiazol-2-yl)-5-(4-fluoro-3-methylphenyl)pyridin-4-yl]azetidin-3-yl}methanamine] belongs less than 10 nM. Same read-out and setting: to `NCC1CN(c2c(-c3cc(F)c(F)c(F)c3)cncc2-c2nc3cc(F)cc(F)c3[nH]2)C1` [Compound 1-48, 1-{1-[3-(4,6-difluoro-1H-1,3-benzodiazol-2-yl)-5-(3,4,5-trifluorophenyl)pyridin-4-yl]azetidin-3-yl}methanamine] belongs less than 10 nM; to `Cc1cc(F)cc(-c2cncc(-c3nc4cc(F)cc(F)c4[nH]3)c2N2CC(C(N)CO)C2)c1` (centres unmarked) [Compound 1-49, 2-Amino-2-{1-[3-(4,6-difluoro-1H-1,3-benzodiazol-2-yl)-5-(3-fluoro-5-methylphenyl)pyridin-4-yl]azetidin-3-yl}ethan-1-ol], less than 10 nM; to `Cc1cc(F)cc(-c2cncc(-c3nc4c(F)cc(F)cc4[nH]3)c2N2CC(C)(CN)C2)c1` [Compound 1-50, 1-{1-[3-(4,6-difluoro-1H-1,3-benzodiazol-2-yl)-5-(3-fluoro-5-methylphenyl)pyridin-4-yl]-3-methylazetidin-3-yl}methanamine], less than 10 nM.

Regarding `NCC1CN(c2c(-c3nc4cc(F)cc(F)c4[nH]3)cncc2-c2cccc3ccccc23)C1` [Compound 1-52, 1-{1-[3-(4,6-difluoro-1H-1,3-benzodiazol-2-yl)-5-(naphthalen-1-yl)pyridin-4-yl]azetidin-3-yl}methanamine], the EC50 lay in the range of 10 to 100 nM. For `NCC1CN(c2c(-c3cccc(Cl)c3)cncc2-c2nc3c(F)cc(F)cc3[nH]2)C1` [Compound 1-53, 1-{1-[3-(3-chlorophenyl)-5-(4,6-difluoro-1H-1,3-benzodiazol-2-yl)pyridin-4-yl]azetidin-3-yl}methanamine], the concentration for a half-maximal effect (EC50) was less than 10 nM. The same measure, in the same setting: to `N#Cc1cccc(-c2cncc(-c3nc4c(F)cc(F)cc4[nH]3)c2N2CC(CN)C2)c1` [Compound 1-54, 3-{4-[3-(aminomethyl)azetidin-1-yl]-5-(4,6-difluoro-1H-1,3-benzodiazol-2-yl)pyridin-3-yl}benzonitrile] belongs less than 10 nM; to `Cc1ccc(-c2cncc(-c3nc4cc(F)cc(F)c4[nH]3)c2N2CC(CN)C2)cc1F` [Compound 1-55, 1-{1-[3-(4,6-difluoro-1H-1,3-benzodiazol-2-yl)-5-(3-fluoro-4-methylphenyl)pyridin-4-yl]azetidin-3-yl}methanamine], 10 to 100 nM. On the same count and under the same terms, as for `Cc1cc(F)cc(-c2cncc(-c3ncc[nH]3)c2N2CC(CN)C2)c1` [Compound 1-56, 1-{1-[3-(3-fluoro-5-methylphenyl)-5-(1H-imidazol-2-yl)pyridin-4-yl]azetidin-3-yl}methanamine], the figure is more than 1000 nM. The same measure, in the same setting: to `NCC1CN(c2c(-c3nc4cc(F)cc(F)c4[nH]3)cncc2-c2cccc(Cl)c2F)C1` [Compound 1-57, 1-{1-[3-(3-chloro-2-fluorophenyl)-5-(4,6-difluoro-1H-1,3-benzodiazol-2-yl)pyridin-4-yl]azetidin-3-yl}methanamine] belongs 10 to 100 nM; to `COc1cc(F)cc(-c2cncc(-c3nc4cc(F)cc(F)c4[nH]3)c2N2CC(CN)C2)c1` [Compound 1-58, 1-{1-[3-(4,6-difluoro-1H-1,3-benzodiazol-2-yl)-5-(3-fluoro-5-methoxyphenyl)pyridin-4-yl]azetidin-3-yl}methanamine], less than 10 nM; to `COc1cc(Cl)cc(-c2cncc(-c3nc4c(F)cc(F)cc4[nH]3)c2N2CC(CN)C2)c1` [Compound 1-59, 1-{1-[3-(3-chloro-5-methoxyphenyl)-5-(4,6-difluoro-1H-1,3-benzodiazol-2-yl)pyridin-4-yl]azetidin-3-yl}methanamine], less than 10 nM. The compound `NCC1CN(c2c(-c3cc(Cl)cc(Cl)c3)cncc2-c2nc3cc(F)cc(F)c3[nH]2)C1` [Compound 1-60, 1-{1-[3-(3,5-dichlorophenyl)-5-(4,6-difluoro-1H-1,3-benzodiazol-2-yl)pyridin-4-yl]azetidin-3-yl}methanamine] displayed an EC50 of less than 10 nM. `NCC1(F)CN(c2c(-c3cc(F)cc(Cl)c3)cncc2-c2nc3cc(F)cc(F)c3[nH]2)C1` [Compound 1-62, 1-{1-[3-(3-chloro-5-fluorophenyl)-5-(4,6-difluoro-1H-1,3-benzodiazol-2-yl)pyridin-4-yl]-3-fluoroazetidin-3-yl}methanamine]: the half-maximal effective concentration (EC50) was less than 10 nM.

`CC(N)C1CN(c2c(-c3cc(F)cc(C(F)(F)F)c3)cncc2-c2nc3c(F)cc(F)cc3[nH]2)C1` (centres unmarked) [Compound 1-63, 1-{1-[3-(4,6-difluoro-1H-1,3-benzodiazol-2-yl)-5-[3-fluoro-5-(trifluoromethyl)phenyl]pyridin-4-yl]azetidin-3-yl}ethan-1-amine] returned an EC50 of less than 10 nM.

Compound `Cc1c(Cl)cccc1-c1cncc(-c2nc3cc(F)cc(F)c3[nH]2)c1N1CC(CN)C1` [Compound 1-66, 1-{1-[3-(3-chloro-2-methylphenyl)-5-(4,6-difluoro-1H-1,3-benzodiazol-2-yl)pyridin-4-yl]azetidin-3-yl}methanamine] returned a concentration giving a half-maximal response (EC50) of 10 to 100 nM. On the same count and under the same terms, to `Cc1cccc(-c2cncc(-c3nc4cc(F)cc(F)c4[nH]3)c2N2CC(CN)C2)c1F` [Compound 1-67, 1-{1-[3-(4,6-difluoro-1H-1,3-benzodiazol-2-yl)-5-(2-fluoro-3-methylphenyl)pyridin-4-yl]azetidin-3-yl}methanamine] belongs 100 to 1000 nM; to `CCOc1ccc(-c2cncc(-c3nc4c(F)cc(F)cc4[nH]3)c2N2CC(C(C)N)C2)cc1F` (centres unmarked) [Compound 1-72, 1-{1-[3-(4,6-difluoro-1H-1,3-benzodiazol-2-yl)-5-(4-ethoxy-3-fluorophenyl)pyridin-4-yl]azetidin-3-yl}ethan-1-amine], 10 to 100 nM; to `COc1c(F)cccc1-c1cncc(-c2nc3cc(F)cc(F)c3[nH]2)c1N1CC(C(C)N)C1` (centres unmarked) [Compound 1-73, 1-{1-[3-(4,6-difluoro-1H-1,3-benzodiazol-2-yl)-5-(3-fluoro-2-methoxyphenyl)pyridin-4-yl]azetidin-3-yl}ethan-1-amine], less than 10 nM. `CC(N)C1CN(c2c(-c3nc4cc(F)cc(F)c4[nH]3)cncc2-c2cccc(F)c2Cl)C1` (centres unmarked) [Compound 1-74, 1-{1-[3-(2-chloro-3-fluorophenyl)-5-(4,6-difluoro-1H-1,3-benzodiazol-2-yl)pyridin-4-yl]azetidin-3-yl}ethan-1-amine] yielded an EC50 of less than 10 nM. Still for that read-out and setting: as for `CC(N)C1CN(c2c(-c3nc4cc(F)cc(F)c4[nH]3)cncc2-c2cccc(F)c2O)C1` (centres unmarked) [Compound 1-75, 2-{4-[3-(1-aminoethyl)azetidin-1-yl]-5-(4,6-difluoro-1H-1,3-benzodiazol-2-yl)pyridin-3-yl}-6-fluorophenol], the figure is 10 to 100 nM; as for `Cc1cccc(-c2cncc(-c3nc4cc(F)cc(F)c4[nH]3)c2N2CC(C(C)N)C2)c1F` (centres unmarked) [Compound 1-76, 1-{1-[3-(4,6-difluoro-1H-1,3-benzodiazol-2-yl)-5-(2-fluoro-3-methylphenyl)pyridin-4-yl]azetidin-3-yl}ethan-1-amine], less than 10 nM; as for `N#Cc1cc(Cl)cc(-c2cncc(-c3nc4cccc(F)c4[nH]3)c2N2CC[C@H](N)C2)c1` [Compound 2-5, 3-{4-[(3S)-3-aminopyrrolidin-1-yl]-5-(4-fluoro-1H-1,3-benzodiazol-2-yl)pyridin-3-yl}-5-chlorobenzonitrile], 10 to 100 nM. On the same count and under the same terms, as for `CON=Cc1cc(F)cc(-c2cncc(-c3nc4c(F)cccc4[nH]3)c2N2CC[C@H](N)C2)c1` [Compound 2-9, (3S)-1-[3-(4-fluoro-1H-1,3-benzodiazol-2-yl)-5-{3-fluoro-5-[(methoxyimino)methyl]phenyl}pyridin-4-yl]pyrrolidin-3-amine], the figure is 10 to 100 nM; as for `CO/N=C/c1cccc(-c2cncc(-c3nc4cccc(F)c4[nH]3)c2N2CC[C@H](N)C2)c1` [Compound 2-12, (3S)-1-[3-(4-fluoro-1H-1,3-benzodiazol-2-yl)-5-{3-[(methoxyimino)methyl]phenyl}pyridin-4-yl]pyrrolidin-3-amine], 10 to 100 nM; as for `CN(C)c1ccc(-c2cncc(-c3nc4cccc(F)c4[nH]3)c2N2CCC(C)(N)C2)cn1` (centres unmarked) [Compound 2-14, 4′-(3-amino-3-methylpyrrolidin-1-yl)-5′-(4-fluoro-1H-1,3-benzodiazol-2-yl)-N,N-dimethyl-[3,3′-bipyridin]-6-amine], 100 to 1000 nM. Turning to `CC1(N)CCN(c2c(-c3ccnc(N)c3)cncc2-c2nc3cccc(F)c3[nH]2)C1` (centres unmarked) [Compound 2-15, 4-(3-amino-3-methylpyrrolidin-1-yl)-5-(4-fluoro-1H-1,3-benzodiazol-2-yl)-[3,4′-bipyridin]-2′-amine], the EC50 fell in the range of 10 to 100 nM. Still for that read-out and setting: as for `CC1(N)CCN(c2c(-c3cccc(-n4cccn4)c3)cncc2-c2nc3cccc(F)c3[nH]2)C1` (centres unmarked) [Compound 2-16, 1-[3-(4-fluoro-1H-1,3-benzodiazol-2-yl)-5-[3-(1H-pyrazol-1-yl)phenyl]pyridin-4-yl]-3-methylpyrrolidin-3-amine], the figure is 10 to 100 nM.

The assay is the same for the next values; noted with them: SST5 over SST2, class symbols.
As to `COc1cccc(-c2cncc(-c3nc4cccc(F)c4[nH]3)c2N2CCC(C)(N)C2)c1` (centres unmarked) [Compound 2-11, 1-[3-(4-fluoro-1H-1,3-benzodiazol-2-yl)-5-(3-methoxyphenyl)pyridin-4-yl]-3-methylpyrrolidin-3-amine], the “Fold selectivity for SST5 vs SST2” value is on record as “+++ (+++=≥500)”.

The record behind these values is patent US11608335B2, “Somatostatin modulators and uses thereof” (CRINETICS PHARMACEUTICALS, INC., priority 2018, dated 2023).
